Results: patent publication US8067589B2, “Heterocyclic compounds useful in treating diseases and conditions” (Pfizer Inc, priority 2007, dated 2011)

biological target: human recombinant H-PGDS (Homo sapiens, UniProt O60760); assay: Fluoresecence Intensity h-PGDSTBA Enzyme Assay; conditions: 5.0 μM PGH2, 2.5 mM L-Glutathione, 10 min preincubation, 4-parameter fit, highest inhibitor concentration typically 1 μM
Sequence (O60760 whole entry): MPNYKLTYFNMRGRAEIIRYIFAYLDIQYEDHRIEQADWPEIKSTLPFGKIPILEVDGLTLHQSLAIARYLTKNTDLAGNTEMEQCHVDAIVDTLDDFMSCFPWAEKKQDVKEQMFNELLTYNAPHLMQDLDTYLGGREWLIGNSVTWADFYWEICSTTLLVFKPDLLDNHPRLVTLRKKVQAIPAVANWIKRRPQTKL

| IC50 | Compound |
| --- | --- |
| 0.275 nM | 2-Phenyl-N-[1-(2,2,2- trifluoroethyl) piperidin-4-yl] pyrimidine-5- carboxamide [Example 9] |

same assay, conditions: IC50, 5.0 μM PGH2, 2.5 mM L-Glutathione, 10 min preincubation, 4-parameter fit, highest inhibitor concentration typically 1 μM

| IC50 | Compound |
| --- | --- |
| 1.41 nM | CC(C)(C)OC(=O)N1C[C@H](O)[C@H](NC(=O)c2cnc(-c3cccc(F)c3)nc2)C1 (relative stereo) [Example 94, cis-tert-Butyl 3-(2-(3-fluorophenyl)pyrimidine-5-carboxamido)-4-hydroxypyrrolidine-1-carboxylate] |
| 3.83 nM | N#Cc1ccccc1C(=O)c1cccnc1N1C[C@H](O)[C@H](NC(=O)c2cnc(-c3cccc(F)c3)nc2)C1 (relative stereo) [Example 97, Cis-N-{1-[3-(2-Cyanobenzoyl)pyridin-2-yl]-4-hydroxypyrrolidin-3-yl}-2-(3-fluorophenyl)pyrimidine-5-carboxamide] |
| 1.82 nM | O=C(N[C@@H]1CN(c2ncccn2)C[C@@H]1O)c1cnc(-c2cccc(F)c2)nc1 (relative stereo) [Example 98, Cis-2-(3-Fluorophenyl)-N-[4-hydroxy-1-pyrimidin-2-ylpyrrolidin-3-yl]pyrimidine-5-carboxamide] |
| 2.65 nM | NC(=O)c1cccnc1N1C[C@H](O)[C@H](NC(=O)c2cnc(-c3cccc(F)c3)nc2)C1 (relative stereo) [Example 99, Cis-N-{1-[3-(Aminocarbonyl)pyridin-2-yl]-4-hydroxypyrrolidin-3-yl}-2-(3-fluorophenyl)pyrimidine-5-carboxamide] |
| 4.47 nM | N#Cc1ccc(C(F)(F)F)nc1N1C[C@H](O)[C@H](NC(=O)c2cnc(-c3cccc(F)c3)nc2)C1 (relative stereo) [Example 100, Cis-N-{1-[3-Cyano-6-(trifluoromethyl)pyridin-2-yl]-4-hydroxypyrrolidin-3-yl}-2-(3-fluorophenyl)pyrimidine-5-carboxamide] |
| 0.27 nM | O=C(NC1CCN(c2ncc3c(n2)CCOC3)C1)c1cnc(-c2cccc(F)c2)nc1 (single isomer, unassigned) [Example 81a, N-(1-(7,8-Dihydro-5H-pyrano[4,3-d]pyrimidin-2-yl)pyrrolidin-3-yl)-2-(3-fluorophenyl)pyrimidine-5-carboxamide] |
| 0.46 nM | O=C(NC1CCN(c2ncc3c(n2)CCOC3)C1)c1cnc(-c2cccc(F)c2)nc1 (single isomer, unassigned) [Example 81b, N-(1-(7,8-Dihydro-5H-pyrano[4,3-d]pyrimidin-2-yl)pyrrolidin-3-yl)-2-(3-fluorophenyl)pyrimidine-5-carboxamide] |
| 1.92 nM | CCOC(=O)N1CCC(NC(=O)c2cnc(-c3cccc(F)c3)nc2)C1 (single isomer, unassigned) [Example 82a, Ethyl 3-(2-(3-fluorophenyl)pyrimidine-5-carboxamido)pyrrolidine-1-carboxylate] |
| 0.58 nM | CCOC(=O)N1CCC(NC(=O)c2cnc(-c3cccc(F)c3)nc2)C1 (single isomer, unassigned) [Example 82b, Ethyl 3-(2-(3-fluorophenyl)pyrimidine-5-carboxamido)pyrrolidine-1-carboxylate] |
| 162 nM | Cc1nc(-c2ccccc2)ncc1C(=O)NC1CCN(C(C)C)CC1 [Example 1, N-(1-Isopropylpiperidin-4-yl)-4-methyl-2-phenylpyrimidine-5-carboxamide] |
| 67.4 nM | Cc1nc(-c2ccccc2)ncc1C(=O)NC1CCN(Cc2ccccc2)CC1 [Example 2, N-(1-Benzylpiperidin-4-yl)-4-methyl-2-phenylpyrimidine-5-carboxamide] |
| 14.1 nM | Cc1nc(-c2ccccc2)ncc1C(=O)NC1CCN(Cc2ccccn2)CC1 [Example 3, 4-Methyl-2-phenyl-N-[1-(pyridin-2-ylmethyl)piperidin-4-yl]pyrimidine-5-carboxamide] |
| 302 nM | Cc1nc(-c2ccccc2)ncc1C(=O)NC1CCN(C)CC1 [Example 4, 4-Methyl-N-(1-methylpiperid-4-yl)-2-phenylpyrimidine-5-carboxamide] |
| 8.02 nM | CCCC(=O)N1CCC(NC(=O)c2cnc(-c3ccccc3)nc2C)CC1 [Example 5, N-(1-Butyrylpiperidin-4-yl)-4-methyl-2-phenylpyrimidine-5-carboxamide] |
| 6.54 nM | CCOC(=O)N1CCC(NC(=O)c2cnc(-c3ccccc3)nc2C)CC1 [Example 6, Ethyl 4-{[(4-methyl-2-phenylpyrimidin-5-yl)carbonyl]amino)} piperidine-1-carboxylate] |
| 30.4 nM | Cc1nc(-c2ccccc2)ncc1C(=O)NC1CCN(CC2CCOCC2)CC1 [Example 7, 4-Methyl-2-phenyl-N-[1-(tetrahydro-2H-pyran-4-ylmethyl)piperidin-4-yl] pyrimidine-5-carboxamide] |
| 0.461 nM | O=C(NC1CCN(Cc2ccccn2)CC1)c1cnc(-c2ccccc2)nc1 [Example 8, 2-Phenyl-N-[1-(pyridin-2-ylmethyl)piperidin-4-yl] pyrimidine-5-carboxamide] |
| 2 nM | CCCN1CCC(NC(=O)c2cnc(-c3ccccc3)nc2)CC1 [Example 10, 2-Phenyl-N-(1-propylpiperidin-4-yl) pyrimidine-5-carboxamide] |
| 0.381 nM | CC(C)CN1CCC(NC(=O)c2cnc(-c3ccccc3)nc2)CC1 [Example 11, N-(1-Isobutylpiperidin-4-yl)-2-phenyl-pyrimidine-5-carboxamide] |
| 0.428 nM | O=C(NC1CCN(Cc2ccccc2)CC1)c1cnc(-c2ccccc2)nc1 [Example 12, N-(1-Benzylpiperidin-4-yl)-2-phenylpyrimidine-5-carboxamide] |
| 6.34 nM | CC(C)N1CCC(NC(=O)c2cnc(-c3ccccc3)nc2)CC1 [Example 13, N-(1-Isopropylpiperidin-4-yl)-2-phenyl-pyrimidine-5-carboxamide] |
| 0.483 nM | COc1cccc(OC)c1CN1CCC(NC(=O)c2cnc(-c3ccccc3)nc2)CC1 [Example 14, N-[1-(2,6-Dimethoxybenzyl)piperidin-4-yl]-2-phenylpyrimidine-5-carboxamide] |
| ≥ 1000 nM | CC(C)CN1CCC(NC(=O)c2cnc(-c3ccccc3)nc2N)CC1 [Example 15, 4-Amino-N-(1-isobutylpiperidin-4-yl)-2-phenyl-pyrimidine-5-carboxamide] |
| 219 nM | CC(C)N1CCC(NC(=O)c2cnc(-c3ccccc3)nc2N)CC1 [Example 16, 4-Amino-N-(1-isopropylpiperidin-4-yl)-2-phenyl-pyrimidine-5-carboxamide] |
| 19.3 nM | COc1cccc(OC)c1CN1CCC(NC(=O)c2cnc(-c3ccccc3)nc2N)CC1 [Example 17, 4-Amino-N-[1-(2,6-dimethoxybenzyl)piperidin-4-yl]-2-phenylpyrimidine-5-carboxamide] |
| 16.4 nM | Nc1nc(-c2ccccc2)ncc1C(=O)NC1CCN(Cc2ccccn2)CC1 [Example 18, 4-Amino-2-phenyl-N-[1-(pyridin-2-ylmethyl)piperidin-4-yl]pyrimidine-5-carboxamide] |
| ≥ 1000 nM | O=C(NC1CCN(Cc2ccccc2)CC1)c1cnc(-c2ccccc2)nc1O [Example 19, N-(1-Benzylpiperidin-4-yl)-4-hydroxy-2-phenylpyrimidine-5-carboxamide] |
| ≥ 1000 nM | CC(C)(C)OC(=O)N1CCC(NC(=O)c2cnc(-c3ccccc3)nc2O)CC1 [Example 20, tert-Butyl 4-{[(4-hydroxy-2-phenyl-pyrimidin-5-yl)carbonyl]amino}piperidine-1-carboxylate] |
